Each compound was assayed against B-Raf (V600E)-kinase (Homo sapiens (Human), UniProt P15056, V600E) (assay: Kinase test B-RAF (V600E)). Conditions: B-RAF (V600E) kinase test, 250 μM ATP.
Type: biochemical
How it was run: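 B-Raf (V600E) (0.5 ng) preincubated with compound 24 h at RT (5% DMSO), then reacted 60 min at RT with 250 μM ATP and biotinylated MEK1 as substrate. Phospho-MEK (Ser217/221) captured on streptavidin and detected by europium time-resolved fluorescence; IC50 from dose-response curves.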

Sequence of B-Raf (V600E)-kinase (P15056 whole entry V600E): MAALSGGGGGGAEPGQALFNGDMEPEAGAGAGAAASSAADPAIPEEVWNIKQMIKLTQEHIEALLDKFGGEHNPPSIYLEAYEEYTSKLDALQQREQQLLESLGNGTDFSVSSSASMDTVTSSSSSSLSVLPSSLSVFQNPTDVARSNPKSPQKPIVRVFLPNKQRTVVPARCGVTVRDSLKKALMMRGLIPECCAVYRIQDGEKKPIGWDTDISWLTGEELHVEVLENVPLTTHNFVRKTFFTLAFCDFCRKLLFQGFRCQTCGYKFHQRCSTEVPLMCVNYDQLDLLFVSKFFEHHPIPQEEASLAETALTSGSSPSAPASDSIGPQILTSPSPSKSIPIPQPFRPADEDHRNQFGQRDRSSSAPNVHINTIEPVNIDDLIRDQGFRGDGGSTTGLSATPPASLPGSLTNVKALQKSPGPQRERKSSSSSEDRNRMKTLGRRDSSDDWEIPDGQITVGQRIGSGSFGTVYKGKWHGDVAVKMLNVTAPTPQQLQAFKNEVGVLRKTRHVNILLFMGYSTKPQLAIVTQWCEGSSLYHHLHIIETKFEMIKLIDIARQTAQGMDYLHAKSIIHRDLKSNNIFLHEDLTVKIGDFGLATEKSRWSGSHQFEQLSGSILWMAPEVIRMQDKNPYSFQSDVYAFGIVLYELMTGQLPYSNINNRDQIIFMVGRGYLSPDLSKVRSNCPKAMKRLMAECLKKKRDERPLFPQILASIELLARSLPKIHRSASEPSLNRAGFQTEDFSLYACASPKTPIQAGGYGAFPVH

Structure (SMILES)	IC50 [nM]
COCCNc1ncc2ncnc(Nc3cc(C(=O)Nc4cc(C(C)(C)C)on4)ccc3C)c2n1 [III-358]	1
CN(CCN1CCCC1)c1ncc2ncnc(Nc3cc(C(=O)Nc4cc(C(C)(C)C)on4)ccc3C(F)(F)F)c2n1 [III-59]	835
Cc1ccc(C(=O)Nc2cc(C(C)(C)C)on2)cc1Nc1ncnc2cnc(N3CCCOCC3)nc12 [III-369]	2
COCCN1CCN(c2nc(N)c3ncnc(Nc4cc(C(=O)Nc5cc(C(C)(C)C)n[nH]5)ccc4C)c3n2)CC1 [I-41]	5
Cc1ccc(C(=O)Nc2ccc(C(F)(F)F)cc2)cc1Nc1ncnc2c(N)nc(N3CCN(C)CC3)nc12 [I-5]	5
COc1ccc(NC(=O)c2ccc(Cl)c(Nc3ncnc4cnc(N(C)C)nc34)c2)cc1C(F)(F)F [III-16]	2
CN1CCCN(c2nc(N)c3ncnc(Nc4cccc(C(=O)Nc5cccc(C(F)(F)F)c5)c4)c3n2)CC1 [I-20]	50
Cc1ccc(C(=O)Nc2cc(CN3CCCC3)cc(C(F)(F)F)c2)cc1Nc1ncnc2cnc(N3CCC(F)(F)CC3)nc12 [III-102]	4
Cc1ccc(C(=O)Nc2ccccc2)cc1Nc1ncnc2cnc(N3CC[C@@H](F)C3)nc12 [III-209]	162
Cc1ccc(C(=O)NCc2cccc(C(F)(F)F)c2)cc1Nc1ncnc2cnc(N(C)CCN(C)C)nc12 [III-200]	971
COc1ccc(NC(=O)c2ccc(C)c(Nc3ncnc4c(N)nc(N5CCN(C)CC5)nc34)c2)cc1C(F)(F)F [I-1]	26
CN(C)C1CCN(c2ncc3ncnc(Nc4cc(C(=O)Nc5cc(C(C)(C)C)on5)ccc4F)c3n2)CC1 [III-401]	3
Cc1ccc(C(=O)Nc2cc(C(C)(C)C)n[nH]2)cc1Nc1ncnc2c(N)nc(N3CCN(C4CC4)CC3)nc12 [I-42]	9
COc1ccc(NC(=O)c2ccc(C)c(Nc3ncnc4cnc(N5C[C@@H](C)N[C@@H](C)C5)nc34)c2)cc1C(F)(F)F [III-436]	2
COc1c(NC(=O)c2ccc(C)c(Nc3ncnc4cnc(N(C)CCN(C)C)nc34)c2)cc(C(C)(C)C)cc1NS(C)(=O)=O [III-199]	23
Cc1ccc(C(=O)Nc2cccc(C(C)(C)C#N)c2)cc1Nc1ncnc2cnc(N3CC[C@@H](F)C3)nc12 [III-206]	2
Cc1ccc(C(=O)Nc2cc(C(C)(C)C)on2)cc1Nc1ncnc2cnc(N3CC(F)(F)C3)nc12 [III-366]	6
Cc1ccc(C(=O)NCc2ccc(C(C)(C)C)cc2)cc1Nc1ncnc2cnc(N3CCCCC3)nc12 [III-245]	460
COc1ccc(NC(=O)c2ccc(F)c(Nc3ncnc4cnc(N5CCCC5)nc34)c2)cc1C(F)(F)F [III-38]	5
Cc1ccc(C(=O)Nc2cccc(OC(F)(F)F)c2)cc1Nc1ncnc2cnc(N(C)CCN(C)C)nc12 [III-237]	2
CN1CCCN(c2ncc3ncnc(Nc4cc(C(=O)Nc5cc(C(C)(C)C)on5)ccc4C(F)(F)F)c3n2)CC1 [III-58]	88
COCCN(C)c1ncc2ncnc(Nc3cc(C(=O)Nc4cc(C(C)(C)C)on4)ccc3OC)c2n1 [III-80]	6
Cc1ccc(NC(=O)c2cccc(C(F)(F)F)c2)cc1Nc1ncnc2c(N)nc(N3CCN(C)CC3)nc12 [II-1]	26
Cn1nc(C(C)(C)C)cc1NC(=O)c1ccc(F)c(Nc2ncnc3cnc(N4CCOCC4)nc23)c1 [III-384]	2
Cc1ccc(NC(=O)c2cccc(C(F)(F)F)c2)cc1Nc1ncnc2c(N)nc(N3CCCN(C4CC4)CC3)nc12 [II-10]	25
Cc1ccc(C(=O)Nc2cc(C(C)(C)C)on2)cc1Nc1ncnc2cnc(N(C)CC3CCOC3)nc12 (stereo not shown) [III-360]	3

Structure (SMILES)	IC50 [nM]
Cc1ccc(C(=O)Nc2cccc(C(C)(C)C)c2)cc1Nc1ncnc2cnc(N(C)CCN(C)C)nc12 [III-239]	6
Cc1ccc(C(=O)Nc2cc(N(C)CCN(C)C)cc(C(F)(F)F)c2)cc1Nc1ncnc2c(N)nc(N3CCCOCC3)nc12 [I-70]	3
Cc1ccc(C(=O)Nc2cc(C(C)(C)C)on2)cc1Nc1ncnc2cnc(N3CCC[C@H]3CO)nc12 [III-363]	< 1
Cc1ccc(C(=O)Nc2nnc(C(F)(F)F)s2)cc1Nc1ncnc2cnc(N3CCCC3)nc12 [III-264]	2600
Cc1ccc(C(=O)Nc2cccc(C(C)(C)C#N)c2)cc1Nc1ncnc2cnc(N3CCCC3)nc12 [III-276]	6
CC(C)(C#N)c1cccc(NC(=O)c2ccc(F)c(Nc3ncnc4cnc(N5CCOCC5)nc34)c2)c1 [III-383]	4
COCCN(C)c1ncc2ncnc(Nc3cc(C(=O)Nc4ccc(OC)c(C(F)(F)F)c4)ccc3OC)c2n1 [III-17]	3
COc1ccc(NC(=O)c2ccc(Cl)c(Nc3ncnc4cnc(N5CCOCC5)nc34)c2)cc1C(F)(F)F [III-12]	2
CN1CCC(N2CCN(c3nc(N)c4ncnc(Nc5cc(C(=O)Nc6cccc(C(F)(F)F)c6)ccc5Br)c4n3)CC2)CC1 [I-28]	13
COc1ccc(NC(=O)c2ccc(Cl)c(Nc3ncnc4cnc(NCCN5CCOCC5)nc34)c2)cc1C(F)(F)F [III-15]	5
COCCN(C)c1ncc2ncnc(Nc3cc(C(=O)Nc4cc(C(C)(C)C)on4)ccc3C(F)(F)F)c2n1 [III-55]	> 150
Cc1ccc(C(=O)Nc2ccc(C#N)c(C(F)(F)F)c2)cc1Nc1ncnc2cnc(N3CCCCC3)nc12 [III-333]	56
CC(C)(C)c1cc(NC(=O)c2ccc(F)c(Nc3ncnc4cnc(N5CCOCC5)nc34)c2)no1 [III-89]	4
Cc1ccc(C(=O)Nc2cc(CN3CCCC3)cc(C(F)(F)F)c2)cc1Nc1ncnc2cnc(NCCF)nc12 [III-101]	1
Cc1ccc(C(=O)n2nc(C(C)(C)C)cc2N)cc1Nc1ncnc2cnc(NC3CCOC3)nc12 (stereo not shown) [III-354]	20
COc1ccc(NC(=O)c2ccc(C)c(Nc3ncnc4cnc(N5CCN(C)CC5)nc34)c2)cc1C(F)(F)F [III-1]	2
CC(C)(C)c1cc(NC(=O)c2ccc(C(F)(F)F)c(Nc3ncnc4cnc(N5CCOCC5)nc34)c2)no1 [III-63]	13
Cc1ccc(C(=O)Nc2ccc(C#N)c(C(F)(F)F)c2)cc1Nc1ncnc2cnc(N3CCCC3)nc12 [III-273]	31
Cc1ccc(C(=O)Nc2cc(N(C)CCN(C)C)cc(C(F)(F)F)c2)cc1Nc1ncnc2c(N)nc(N3CC[C@H](F)C3)nc12 [I-86]	4
Cc1ccc(C(=O)NC2CC2)cc1Nc1ncnc2cnc(N3CCCCC3)nc12 [III-254]	2000
COc1ccc(C(=O)Nc2cccc(C(F)(F)F)c2)cc1Nc1ncnc2c(N)nc(N3CCCN(C)CC3)nc12 [I-31]	58
Cc1ccc(C(=O)Nc2ccc(F)c(C(F)(F)F)c2)cc1Nc1ncnc2cnc(N3CCN(C)CC3)nc12 [III-297]	1
COc1ccc(C(=O)Nc2cc(C(C)(C)C)on2)cc1Nc1ncnc2cnc(N3CCOCC3)nc12 [III-81]	2
COc1ccc(NC(=O)c2ccc(C)c(Nc3ncnc4cnc(NC5CCOC5)nc34)c2)cc1C(F)(F)F (stereo not shown) [III-356]	< 1
Cc1ccc(C(=O)NCc2cccc(C(F)(F)F)c2)cc1Nc1ncnc2cnc(N3CCCCC3)nc12 [III-214]	56

Results, then the compound that gave them:

IC50 [nM]	Structure (SMILES)
2	Cc1ccc(NC(=O)c2cccc(C(C)(C)C#N)c2)cc1Nc1ncnc2cnc(N3CC[C@@H](F)C3)nc12 [IV-34]
3	Cc1ccc(C(=O)Nc2ccnc(C(C)(C)C)c2)cc1Nc1ncnc2cnc(N3CCC(CCN(C)C)CC3)nc12 [III-606]
2	Cc1ccc(C(=O)Nc2cc(C(C)(C)C)on2)cc1Nc1ncnc2cnc(N3CCC(N(C)C)CC3)nc12 [III-495]
10000	Cc1ccc(NS(=O)(=O)CC(C)C)cc1Nc1ncnc2cnc(N3CCN(C)CC3)nc12 [IV-57]
4	COCCN(C)c1ncc2ncnc(Nc3cc(C(=O)Nc4cc(C(C)(C)C)n[nH]4)ccc3C)c2n1 [III-471]
4	Cc1ccc(C(=O)Nc2cc(C(C)(C)C)on2)cc1Nc1ncnc2cnc(N3CCN(CC4CCOC4)CC3)nc12 (stereo not shown) [III-482]
< 1	Cc1ccc(NC(=O)c2cccc(C(C)(C)C#N)c2)cc1Nc1ncnc2cnc(N3CCOCC3)nc12 [IV-2]
1	COc1ncc2ncnc(Nc3cc(C(=O)Nc4cccc(C(F)(F)F)c4)ccc3C)c2n1 [III-568]
4	Cc1ccc(C(=O)Nc2cc(C(C)(C)C)on2)cc1Nc1ncnc2cnc(N(C)CC3CCCCO3)nc12 (stereo not shown) [III-480]
30	CC(C)(C#N)c1cccc(C(=O)Nc2cccc(Nc3ncnc4c(N)ncnc34)c2)c1 [VIII-2]
14	Cc1ccc(C(=O)Nc2cc(C(C)(C)C)nn2C)cc1Nc1ncnc2cncnc12 [V-10]
2	Cc1ccc(NC(=O)c2cccc(C(C)(C)C#N)c2)cc1Nc1ncnc2cnc(N3CCN(C4CC4)CC3)nc12 [IV-26]
1	COc1ccc(NC(=O)c2ccc(C)c(Nc3ncnc4cnc(N5CCCN(C)CC5)nc34)c2)cc1C(F)(F)F [III-443]
2	COc1ccc(NC(=O)c2ccc(C)c(Nc3ncnc4cnc(N5CCN(C(C)C)CC5)nc34)c2)cc1C(F)(F)F [III-437]
10000	Cc1ccc(NS(=O)(=O)c2cccc(C(F)(F)F)c2)cc1Nc1ncnc2cnc(N3CCN(C)CC3)nc12 [IV-61]
12	Cc1ccc(NC(=O)c2cccc(C(F)(F)F)c2)cc1Nc1ncnc2cnc(N3CCN(C)CC3)nc12 [IV-3]
3	Cc1ccc(C(=O)Nc2cc(N3CCOCC3)cc(C(F)(F)F)c2)cc1Nc1ncnc2cnc(N3CCOCC3)nc12 [III-525]
44	Cc1ccc(NC(=O)c2cc(C(C)(C)C)n[nH]2)cc1Nc1ncnc2cnc(N3CCN(C)CC3)nc12 [IV-4]
8	COCCN1CCN(c2ncc3ncnc(Nc4cc(C(=O)Nc5cc(-n6cnc(C)c6)cc(C(F)(F)F)c5)ccc4C)c3n2)CC1 [III-502]
59	COc1ncc2ncnc(Nc3cc(NC(=O)c4ccc(Cl)c(C(F)(F)F)c4)ccc3C)c2n1 [IV-50]
3	Cc1cn(-c2cc(NC(=O)c3ccc(C)c(Nc4ncnc5cnc(N6CCC(F)(F)C6)nc45)c3)cc(C(F)(F)F)c2)cn1 [III-450]
4	Cc1ccc(C(=O)Nc2cc(N3CCN(C)CC3)c(F)c(C(F)(F)F)c2)cc1Nc1ncnc2cnc(NC3CCOC3)nc12 (stereo not shown) [III-506]

From patent US8653087B2, “Pyrido [5, 4-D] pyrimidines as cell proliferation inhibitors” (Boehringer Ingelheim International GmbH, priority 2008, dated 2014)
